According to patent publication US9480677B2, “Enantiomers of spiro-oxindole compounds and their uses as therapeutic agents” (Xenon Pharmaceuticals Inc., priority 2009, dated 2016):

Columns and labels:
hNav1.7 [1] = target: T1, hNav1.7 (Homo sapiens, UniProt Q15858); assay: cell-based
hNav1.7 [2] = target: T1, hNav1.7; assay: Electrophysiological assay, whole cell voltage clamp; type: cell-based; design: expressed in transfected cells; host or cells: HEK293; details: for Ki: affinity for the inactivated state of hNav1.7; for Kd: affinity for the rested/closed state of hNav1.7, holding potential −120 mV, read-out: Kr
Description: HEK293 Cells expressing hNav1.7 were cultured in DMEM growth media (Gibco) with 0.5 mg/mL G418, +/−1% PSG, and 10% heat-inactivated fetal bovine serum at 37° C. and 5% CO2. For electrophysiological recordings, cells were plated on 10 mm dishes.
Whole cell recordings were examined by established methods of whole cell voltage clamp (Bean et al., op. cit.) using an Axopatch 200B amplifier and Clampex software (Axon Instruments, Union City, Calif.). All experiments were performed at ambient temperature. Electrodes were fire-polished to resistances of 2-4 Mohms Voltage errors and capacitance artifacts were minimized by series resistance compensation and capacitance compensation, respectively. Data were acquired at 40 kHz and filtered at 5 kHz. The external (bath) solution consisted of: NaCl (140 mM), KCl (5 mM), CaCl2 (2 mM), MgCl2 (1 mM), HEPES (10 mM) at pH 7.4. The internal (pipette) solution consisted of (in mM): NaCl (5), CaCl2 (0.1), MgCl2 (2), CsCl (10), CsF (120), HEPES (10), EGTA (10), at pH 7.2.
To estimate the steady-state affinity of compounds for the resting and inactivated state of the channel (Kr and Ki, respectively), 12.5 ms test pulses to depolarizing voltages from −60 to +90 m V from a holding potential of −120 m V was used to construct current-voltage relationships (1-V curves). A voltage near the peak of the IV-curve (−30 to 0 m V) was used as the test pulse throughout the remainder of the experiment. Steady-state inactivation (availability) curves were then constructed by measuring the current activated during a 8.75 ms test pulse following 1 second conditioning pulses to potentials ranging from −120 to −10 mV.
The steady-state voltage-dependence of binding of a compound to a voltage-gated sodium channel was determined by measuring the blockage of the ionic current at two holding potentials. Binding to rested-state channels was determined by using a holding potential of −120 mV, so that maximal availability was achieved. Binding to inactivated-state channels was evaluated at a holding potential such that only about 10% of the channels were available to open. The membrane potential was held at this voltage for at least 10 seconds so that drug binding could equilibrate.
The apparent dissociation constant at each voltage was calculated with the equation:
[formula] where Kd is the dissociation constant (either Kr or Ki), and [Drug] is the concentration of the test compound.

[3] = system: chronic constriction injury neuropathic pain; assay: Neuropathic pain model; chronic constriction injury (CCI); type: in vivo; details: topical ointment containing 2% (w/v)
[4] = Plasma concentration after oral dosing in the CFA model; type: in vivo, rats
Description: Each enantiomer was dosed at 10, 30, 100 or 200 mg/Kg. The plasma concentration achieved with each dose was also determined and the reversal of pain response (as the % increase from baseline threshold) is plotted as a function of plasma concentration.

[5] = system: Nav1.9 and Nav1.7 (SH-SY5Y); type: cell-based, Human
Nav1.2 and Nav1.7 (PC12) = type: cell-based, rat
Nav1.4 (CHO-K1) = Nav1.4 (CHO-K1) (Cricetulus griseus, UniProt A0A9J7H6F9); type: cell-based, Chinese Hamster
Chain of Nav1.4 (CHO-K1) (A0A9J7H6F9 1-1930): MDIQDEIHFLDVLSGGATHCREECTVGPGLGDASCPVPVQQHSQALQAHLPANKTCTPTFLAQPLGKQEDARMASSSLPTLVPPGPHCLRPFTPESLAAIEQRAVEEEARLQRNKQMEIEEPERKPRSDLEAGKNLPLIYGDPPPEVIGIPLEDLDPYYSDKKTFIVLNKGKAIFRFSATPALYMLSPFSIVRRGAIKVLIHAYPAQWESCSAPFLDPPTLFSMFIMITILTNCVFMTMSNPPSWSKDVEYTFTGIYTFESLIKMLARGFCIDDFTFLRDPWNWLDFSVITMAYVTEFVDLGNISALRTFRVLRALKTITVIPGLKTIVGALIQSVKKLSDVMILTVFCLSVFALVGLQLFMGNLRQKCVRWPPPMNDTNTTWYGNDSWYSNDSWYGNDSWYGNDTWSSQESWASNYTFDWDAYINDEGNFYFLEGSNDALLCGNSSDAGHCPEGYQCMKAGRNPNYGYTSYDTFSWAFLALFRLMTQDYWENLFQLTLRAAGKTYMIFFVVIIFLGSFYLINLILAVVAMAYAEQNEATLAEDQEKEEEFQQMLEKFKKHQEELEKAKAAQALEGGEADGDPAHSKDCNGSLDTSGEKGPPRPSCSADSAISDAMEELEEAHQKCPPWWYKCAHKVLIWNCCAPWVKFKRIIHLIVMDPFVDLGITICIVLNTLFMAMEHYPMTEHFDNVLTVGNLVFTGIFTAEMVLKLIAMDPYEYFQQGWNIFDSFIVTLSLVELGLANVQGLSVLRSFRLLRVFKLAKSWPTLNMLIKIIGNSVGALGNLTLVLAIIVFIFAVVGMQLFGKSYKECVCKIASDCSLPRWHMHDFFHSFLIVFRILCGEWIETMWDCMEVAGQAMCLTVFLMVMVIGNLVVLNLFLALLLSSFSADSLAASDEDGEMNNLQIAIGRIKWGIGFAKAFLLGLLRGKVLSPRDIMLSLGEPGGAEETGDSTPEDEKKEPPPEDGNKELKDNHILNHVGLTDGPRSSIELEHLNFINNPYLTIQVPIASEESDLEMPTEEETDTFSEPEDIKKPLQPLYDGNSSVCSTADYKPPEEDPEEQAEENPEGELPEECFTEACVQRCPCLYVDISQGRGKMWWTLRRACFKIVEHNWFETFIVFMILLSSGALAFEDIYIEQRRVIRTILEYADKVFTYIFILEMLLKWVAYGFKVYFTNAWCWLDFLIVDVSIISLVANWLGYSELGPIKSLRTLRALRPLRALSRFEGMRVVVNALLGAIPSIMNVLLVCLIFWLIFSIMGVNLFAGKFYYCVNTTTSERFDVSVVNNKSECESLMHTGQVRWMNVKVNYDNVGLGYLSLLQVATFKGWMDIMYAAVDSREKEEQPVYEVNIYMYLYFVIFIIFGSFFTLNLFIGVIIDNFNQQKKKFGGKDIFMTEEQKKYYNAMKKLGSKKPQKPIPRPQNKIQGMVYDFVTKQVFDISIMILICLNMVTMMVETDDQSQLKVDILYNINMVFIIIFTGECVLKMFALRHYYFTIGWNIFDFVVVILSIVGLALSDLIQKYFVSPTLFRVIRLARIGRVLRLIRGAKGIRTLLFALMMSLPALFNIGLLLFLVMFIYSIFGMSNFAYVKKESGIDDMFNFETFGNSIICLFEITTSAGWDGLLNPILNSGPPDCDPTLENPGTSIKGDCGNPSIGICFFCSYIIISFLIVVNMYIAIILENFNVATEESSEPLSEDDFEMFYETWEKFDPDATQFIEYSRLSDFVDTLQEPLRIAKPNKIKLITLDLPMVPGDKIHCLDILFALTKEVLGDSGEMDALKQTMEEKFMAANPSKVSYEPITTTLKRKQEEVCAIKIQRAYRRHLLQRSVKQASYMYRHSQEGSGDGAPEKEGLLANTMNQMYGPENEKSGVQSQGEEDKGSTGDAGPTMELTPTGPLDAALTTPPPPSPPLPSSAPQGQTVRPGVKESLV

Nav1.4 and 1.5 (L6) = type: cell-based, rat
Nav1.8 (SK-N-BE2C) = type: cell-based, human

T1 sequence (Q15858 whole entry): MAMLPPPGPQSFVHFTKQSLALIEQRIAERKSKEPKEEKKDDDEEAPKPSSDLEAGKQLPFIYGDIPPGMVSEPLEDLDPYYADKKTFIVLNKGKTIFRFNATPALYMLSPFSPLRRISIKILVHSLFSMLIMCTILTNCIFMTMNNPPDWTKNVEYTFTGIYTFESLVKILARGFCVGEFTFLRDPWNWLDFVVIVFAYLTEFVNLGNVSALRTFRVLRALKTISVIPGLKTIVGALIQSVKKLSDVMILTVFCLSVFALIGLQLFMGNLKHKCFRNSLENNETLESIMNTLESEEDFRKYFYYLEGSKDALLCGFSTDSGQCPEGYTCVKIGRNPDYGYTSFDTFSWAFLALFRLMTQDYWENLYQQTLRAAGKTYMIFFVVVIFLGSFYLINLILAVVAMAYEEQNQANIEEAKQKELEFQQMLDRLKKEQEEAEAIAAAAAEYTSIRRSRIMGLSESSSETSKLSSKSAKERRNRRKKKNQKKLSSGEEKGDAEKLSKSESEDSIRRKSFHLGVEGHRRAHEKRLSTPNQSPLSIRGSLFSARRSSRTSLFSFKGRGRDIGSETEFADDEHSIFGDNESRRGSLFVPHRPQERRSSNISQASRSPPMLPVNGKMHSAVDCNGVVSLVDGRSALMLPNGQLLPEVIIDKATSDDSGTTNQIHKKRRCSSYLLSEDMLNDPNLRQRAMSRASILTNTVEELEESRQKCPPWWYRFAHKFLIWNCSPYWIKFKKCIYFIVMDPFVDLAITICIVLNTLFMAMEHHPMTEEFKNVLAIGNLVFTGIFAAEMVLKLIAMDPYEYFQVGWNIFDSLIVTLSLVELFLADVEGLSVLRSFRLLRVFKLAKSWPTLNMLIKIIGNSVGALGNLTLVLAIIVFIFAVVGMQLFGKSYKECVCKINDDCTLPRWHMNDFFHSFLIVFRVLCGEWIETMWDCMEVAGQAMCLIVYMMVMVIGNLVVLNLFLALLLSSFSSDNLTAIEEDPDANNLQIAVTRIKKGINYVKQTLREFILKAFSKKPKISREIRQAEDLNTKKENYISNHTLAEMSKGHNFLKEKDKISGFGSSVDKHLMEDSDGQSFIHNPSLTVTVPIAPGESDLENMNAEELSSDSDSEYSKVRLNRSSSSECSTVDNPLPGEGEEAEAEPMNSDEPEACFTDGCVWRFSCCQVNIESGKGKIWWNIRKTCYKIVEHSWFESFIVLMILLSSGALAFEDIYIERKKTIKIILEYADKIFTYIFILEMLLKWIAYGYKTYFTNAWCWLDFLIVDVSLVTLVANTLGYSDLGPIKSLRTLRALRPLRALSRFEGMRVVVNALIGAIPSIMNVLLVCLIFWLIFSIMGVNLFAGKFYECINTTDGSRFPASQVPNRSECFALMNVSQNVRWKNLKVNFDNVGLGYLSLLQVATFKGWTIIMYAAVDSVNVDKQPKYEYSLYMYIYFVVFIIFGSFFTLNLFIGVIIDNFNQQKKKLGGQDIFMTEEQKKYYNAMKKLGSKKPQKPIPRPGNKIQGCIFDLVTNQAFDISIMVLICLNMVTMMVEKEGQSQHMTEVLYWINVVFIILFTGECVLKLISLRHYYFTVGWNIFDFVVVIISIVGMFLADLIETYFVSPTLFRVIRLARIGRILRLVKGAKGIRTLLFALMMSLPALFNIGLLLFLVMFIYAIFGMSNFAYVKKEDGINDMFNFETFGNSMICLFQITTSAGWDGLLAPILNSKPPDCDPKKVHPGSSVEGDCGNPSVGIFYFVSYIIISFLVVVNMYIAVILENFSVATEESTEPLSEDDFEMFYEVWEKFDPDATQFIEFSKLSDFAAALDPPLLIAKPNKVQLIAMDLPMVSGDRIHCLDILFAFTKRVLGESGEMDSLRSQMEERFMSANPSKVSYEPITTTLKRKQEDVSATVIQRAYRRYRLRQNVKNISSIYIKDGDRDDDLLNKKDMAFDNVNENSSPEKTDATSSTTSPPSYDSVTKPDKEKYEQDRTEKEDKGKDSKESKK

Compound | IC50 (hNav1.7 [1]) | Ki (hNav1.7 [2]) | Kd (hNav1.7 [2]) | reversal of pain responses, percent increase from baseline [3] | excess of the inactive (R)-enantiomer resulting from use of the racemate ([4]; oral dosing) | plasma concentration at an equivalent dose level ([4]; oral dosing 10, 30, 100 or 200 mg/Kg, compared with the (S)-enantiomer) | block of [14C] guanidine influx by TTX [5] | block of [14C] guanidine influx by TTX (Nav1.2 and Nav1.7 (PC12)) | block of [14C] guanidine influx by TTX (Nav1.4 (CHO-K1)) | block of [14C] guanidine influx by TTX (Nav1.4 and 1.5 (L6)) | block of [14C] guanidine influx by TTX (Nav1.8 (SK-N-BE2C))
O=C1N(Cc2ccc(C(F)(F)F)o2)c2ccccc2C12COc1cc3c(cc12)OCO3 (racemic) [(I), 1′-{[5-(trifluoromethyl)furan-2-yl]methyl}spiro[furo[2,3-f][1,3]benzodioxole-7,3′-indol]-2′(1′H)-one] | 7 nM | 142 nM | > 10000 nM |  |  |  |  |  |  |  | 
O=C1N(Cc2ccc(C(F)(F)F)o2)c2ccccc2[C@@]12COc1cc3c(cc12)OCO3 [(I-R), (R)-1′-{[5-(trifluoromethyl)furan-2-yl]methyl}spiro[furo[2,3-f][1,3]benzodioxole-7,3′-indol]-2′(1H)-one] | 4200 nM | 869 nM | > 10000 nM | no significant increase from baseline | ~10 fold | much higher plasma concentration |  |  |  |  | 
NC1=N[C@H](O)[C@H]2[C@H]3O[C@]4(O)O[C@@H]([C@@H](O)[C@@]2(N1)[C@@H]4O)[C@]3(O)CO [TTX, tetrodotoxin] |  |  |  |  |  |  | background was partially blocked | guanidine influx was completely | completely blocked using TTX. | partially blocked by TTX at 100 nM | TTX partially blocked influx
